According to a compilation of properties of binary mixtures (doi:10.1016/j.molliq.2017.09.038):

Test: xn = mol fraction of the nth substance listed
Details: 101 kPa

CCCCCCCCCC[n+]1ccn(C)c1.[Br-] + O
viscosity [mPa·s]
Details | 288 K | 293 K | 298 K | 303 K | 308 K
x1 = 0.0146 | 3.39 | 3.21 | 2.77 | – | 1.94
x1 = 0.0194 | 4.6 | 4.1 | 3.72 | – | 2.83
x1 = 0.0248 | 6.77 | 5.99 | 5.72 | 5.12 | 4.22
x1 = 0.031 | 9.19 | 8.61 | 8.09 | 7.92 | 7.3
